Source: patent US8957075B2, “O-GlcNAc transferase inhibitors and uses thereof” (priority 2009, dated 2015)

Molecular target: T1, sOGT (Homo sapiens (Human), UniProt O15294)
Experiment: Secondary assay: transfer of UDP-14C-GlcNAc to casein kinase II derived peptide by sOGT
Type: biochemical
Conditions: 500 μM peptide, 6.25 μM UDP-14C-GlcNAc, ~20-40 nM sOGT; read-out: IC50 (OGT inhibition)
Description: Hits were examined in a secondary assay involving the transfer of UDP-^14C-GlcNAc to a peptide derived from casein kinase II, which contains a known OGT glycosylation site, as described by Hart and co-workers (see manuscript, reference 4). Three lysines and a tyrosine were added to the N-terminus of this peptide substrate ([sequence]) to allow capture on phosphocellulose discs and UV detection, respectively. […] Reactions were spotted on Whatman P81 phosphocellulose discs, washed three times for five minutes in 1% phosphoric acid, and counted by liquid scintillation counting. IC50s curves were determined from the counts of the reactions and IC50s were determined.

T1 sequence (O15294 382-1046, species assumed): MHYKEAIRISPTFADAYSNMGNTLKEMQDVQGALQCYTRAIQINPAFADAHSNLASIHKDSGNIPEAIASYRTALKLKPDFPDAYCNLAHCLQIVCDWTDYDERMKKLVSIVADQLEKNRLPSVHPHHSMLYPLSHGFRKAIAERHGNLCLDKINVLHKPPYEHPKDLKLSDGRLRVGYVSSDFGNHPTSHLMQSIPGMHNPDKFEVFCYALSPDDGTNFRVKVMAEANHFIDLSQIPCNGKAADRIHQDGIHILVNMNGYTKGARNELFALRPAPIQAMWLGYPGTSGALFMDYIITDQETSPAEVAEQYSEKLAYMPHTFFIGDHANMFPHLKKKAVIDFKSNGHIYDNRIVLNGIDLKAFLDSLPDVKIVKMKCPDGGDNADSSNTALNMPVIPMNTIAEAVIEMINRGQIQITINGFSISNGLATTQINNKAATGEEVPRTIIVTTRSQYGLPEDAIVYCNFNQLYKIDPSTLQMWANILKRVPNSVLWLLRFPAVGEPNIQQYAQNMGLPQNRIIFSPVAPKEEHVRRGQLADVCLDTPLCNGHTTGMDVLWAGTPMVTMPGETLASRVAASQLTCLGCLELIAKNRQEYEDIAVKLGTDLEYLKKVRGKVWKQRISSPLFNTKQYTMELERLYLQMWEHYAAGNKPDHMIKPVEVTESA

`O=C(C(NS(=O)(=O)c1ccc2[nH]c(=O)ccc2c1)c1ccccc1)N(Cc1ccco1)Cc1cccs1` (stereo not shown) [Example 3, N-(furan-2-ylmethyl)-2-(2-oxo-1,2-dihydroquinoline-6-sulfonamido)-2-phenyl-N-(thiophen-2-ylmethyl)acetamide] gave an IC50 of 0.39 µM.

System: HEK293 cells
Experiment: Glucosamine-induced cellular-wide O-GlcNAcylation changes in HEK cells (western blot, CTD110.6 antibody)
Type: cell-based
Conditions: 12.5 μM compound, 4 mM glucosamine, 16 hours
Description: The efficacy of the inhibitor in cell culture was evaluated by adding compound N08 to HEK293 cells.HEK293 cells were grown in 6 well plates using low glucose (5 mM) DMEM with 10% FBS as the media. […] After mixing the compounds the media was removed from the cultured cells and the inhibitor-media solutions was added to the cells. After cells were incubated with the inhibitors for 16 hours (overnight), the cells were rinsed with PBS, removed using cell scrapers, transferred to 1.5 ml microcentrifuge tubes, pelleted by centrifugation, and lysed by resuspending in 100 μl RIPA buffer with protease and phosphatase inhibitor cocktails (SIGMA). After incubating on ice the debris were pelleted down, and the supernatant was collected as whole cell lysate. Total protein concentration of each sample was determined by Bradford Assay in order to normalize levels of protein loaded onto a gel. Then 2×SDS-PAGE sample buffer was added to each sample, they were boiled for 10 minutes, and loaded onto a denaturing polyacrylamide gel (4-20% gradient), transferred to nitrocellulose membrane, blocked with 1% BSA for 1 hour, and probed with the monoclonal O-GlcNAc antibody, CTD110.6 (Covance), incubated at a 1:5000 dilution in 1% BSA overnight at 4° C., followed by addition of anti-mouse HRP secondary antibody. Pierce SuperSignal West Pico Chemiluminescent substrate was added to perform the western blot.

In the case of `O=C(C(NS(=O)(=O)c1ccc2[nH]c(=O)ccc2c1)c1ccccc1)N(Cc1ccco1)Cc1cccs1` (stereo not shown) [Example 3, N-(furan-2-ylmethyl)-2-(2-oxo-1,2-dihydroquinoline-6-sulfonamido)-2-phenyl-N-(thiophen-2-ylmethyl)acetamide], the “Effect on glucosamine-induced cellular-wide O-GlcNAcylation” value is reported as “reduces glucosamine-induced cellular-wide O-GlcNAcylation changes to normal levels”.

Molecular target: T1, sOGT
Experiment: Fluorescence polarization screen of quinolinesulfonamide library for OGT inhibition (displacement of fluorescein-linked UDP-GlcNAc analog)
Type: binding
Conditions: rough Ki values from fluorescence polarization results and Kd of the probe; 1-2 μM sOGT, 50 nM probe
Description: Compound libraries of the 4 concentrations in duplicated were then transferred to the assay plates using a 100 nL pin array, resulting in a final compound concentration of 25 μg/mL or ˜70 μM at the highest of the four concentrations, assuming an average compound MW of 350. Using a Perkin Elmer Envision® microplate reader, the sample was excited at 480 nm in the vertical plane, and simultaneous emission intensity (535 nm) of the vertical and horizontal polarization planes was measured. The polarization was calculated using the following equation: eq4: mP=1000*(V−G*H)/(V+G*H) where: mP=millipolarization units, V=intensity of vertically polarized emission (RFU), H=intensity of horizontally polarized emission (RFU), and G=gain.

`COc1cccc(N2CCN(C(=O)C(NS(=O)(=O)c3ccc4c(c3)CCC(=O)N4)c3ccccc3)CC2)c1` (stereo not shown) and `Cc1ccc(N2CCN(C(=O)C(NS(=O)(=O)c3ccc4c(c3)CCC(=O)N4)c3ccccc3)CC2)cc1` (stereo not shown) are within 1.5-fold of each other in Ki: 6.3 µM for the first, 9 µM for the second.

Going from `CC(c1cccs1)N(Cc1ccco1)C(=O)C(NS(=O)(=O)c1ccc2c(c1)CCC(=O)N2)c1ccccc1` (stereo not shown) to `O=C1CCc2cc(S(=O)(=O)NC(C(=O)N(Cc3ccco3)Cc3cccs3)c3ccccc3)ccc2N1` (stereo not shown), the Ki rises from 1.6 µM to 4 µM (2.5-fold). The first binds more tightly here.

First: Cc1cccc(C)c1NC(=O)C(NS(=O)(=O)c1ccc2c(c1)CCC(=O)N2)c1ccccc1 (stereo not shown)
Second: CCc1cccc(C)c1NC(=O)C(NS(=O)(=O)c1ccc2c(c1)CCC(=O)N2)c1ccccc1 (stereo not shown)
The Ki of the first is 2.6-fold lower: 37 µM for the first, 97 µM for the second.

Compared with `O=C(C(NS(=O)(=O)c1ccc2[nH]c(=O)ccc2c1)c1ccccc1)N(Cc1ccco1)Cc1cccs1` (stereo not shown) [drawing 100], `CN(Cc1ccco1)C(=O)C(Cc1ccccc1)NS(=O)(=O)c1ccc2c(c1)CCC(=O)N2` (stereo not shown) is 32-fold higher in Ki: 0.4 µM for the first, 13 µM for the second. The first binds more tightly here.

Compared with `Cc1cccc(N(C)C(=O)C(NS(=O)(=O)c2ccc3c(c2)CCC(=O)N3)c2ccccc2)c1` (stereo not shown), `Cc1ccc(NC(=O)C(NS(=O)(=O)c2ccc3c(c2)CCC(=O)N3)c2ccccc2)c(Br)c1` (stereo not shown) is 7-fold higher in Ki: 7.4 µM for the first, 52 µM for the second.

Compared with `CCN(CC)C(=O)C(NS(=O)(=O)c1ccc2c(c1)CCC(=O)N2)c1ccccc1` (stereo not shown), `CC(C)N(Cc1ccccc1)C(=O)C(NS(=O)(=O)c1ccc2c(c1)CCC(=O)N2)c1ccccc1` (stereo not shown) [drawing 86] is 3.7-fold lower in Ki: 21 µM for the first, 5.7 µM for the second.

First: O=C1CCc2cc(S(=O)(=O)NC(C(=O)N3CCN(C4CCCCC4)CC3)c3ccccc3)ccc2N1 (stereo not shown)
Second: O=C1CCc2cc(S(=O)(=O)NC(C(=O)N3CCN(c4ccccn4)CC3)c3ccccc3)ccc2N1 (stereo not shown)
The Ki of the first is 4.8-fold higher: 20 µM for the first, 4.2 µM for the second. The second binds more tightly here.

Going from `O=C1CCc2cc(S(=O)(=O)NC(C(=O)NCc3ccccc3)c3ccccc3)ccc2N1` (stereo not shown) to `O=C1CCc2cc(S(=O)(=O)NC(C(=O)NCc3ccc(Cl)cc3)c3ccccc3)ccc2N1` (stereo not shown), the Ki falls from 125 µM to 6.6 µM (19-fold). The second binds more tightly here.

Compared with `O=C1CCc2cc(S(=O)(=O)NC(C(=O)N3CCC(Cc4ccccc4)CC3)c3ccccc3)ccc2N1` (stereo not shown), `CC(C)N(Cc1ccccc1)C(=O)C(NS(=O)(=O)c1ccc2c(c1)CCC(=O)N2)c1ccccc1` (stereo not shown) [drawing 98] is 3.5-fold higher in Ki: 2 µM for the first, 7 µM for the second. The first binds more tightly here.

Compared with `O=C1CCc2cc(S(=O)(=O)NC(C(=O)N3CCN(C(=O)c4ccco4)CC3)c3ccccc3)ccc2N1` (stereo not shown), `Cc1ccc(N2CCN(C(=O)C(NS(=O)(=O)c3ccc4c(c3)CCC(=O)N4)c3ccccc3)CC2C)cc1` (stereo not shown) is 3.4-fold lower in Ki: 11 µM for the first, 3.2 µM for the second. The second binds more tightly here.

First: Cc1cc(C)c(NC(=O)C(NS(=O)(=O)c2ccc3c(c2)CCC(=O)N3)c2ccccc2)c(C)c1 (stereo not shown)
Second: O=C(O)CC(NS(=O)(=O)c1ccc2c(c1)CCC(=O)N2)c1cccc(Cl)c1 (stereo not shown)
The Ki of the first is 2.7-fold lower: 5.6 µM for the first, 15 µM for the second. The first binds more tightly here.

Going from `CN(CC(=O)Nc1nc2ccc(Cl)cc2s1)S(=O)(=O)c1ccc2[nH]c(=O)ccc2c1` to `COc1ccc(NS(=O)(=O)c2ccc3[nH]c(=O)ccc3c2)cc1OC`, the Ki falls from 60 µM to 7.2 µM (8.3-fold). The second binds more tightly here.

Going from `CCOc1ccccc1NS(=O)(=O)c1ccc2[nH]c(=O)ccc2c1` to `COc1cc2c(cc1OC)C(C)N(S(=O)(=O)c1ccc3[nH]c(=O)ccc3c1)CC2` (stereo not shown), the Ki rises from 4.7 µM to 50 µM (11-fold). The first binds more tightly here.
